The record followed here is ChEMBL document CHEMBL1201862, “PubChem BioAssay data set” (2004).

Assay in all cases: DTP human tumour cell line panel, 48 h
The test system of assay [1] is 786-0.
Assay [2] concerns A549.
For assay [3], the system named is ACHN.
For assay [4], the system named is BT-549.
In assay [5] the test system is CAKI-1.
Assay [6] relates to EKVX.
The subject of assay [7] is HCC 2998.
Assay [8] concerns HT-29.
Assay [9] concerns K562.
Assay [10] relates to MDA-MB-231.
The subject of assay [11] is MDA-MB-435.
The test system of assay [12] is MOLT-4.
Assay [13] deals with Malme-3M.
The subject of assay [14] is NCI/ADR-RES.
For assay [15], the system named is RPMI-8226.
For assay [16], the system named is RXF 393.
Assay [17] has as its system SF-539.
Assay [18] concerns SW-620.
In assay [19] the test system is UACC-62.
In assay [20] the test system is SK-OV-3.

The term GI50 denotes the concentration giving 50% growth inhibition.

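A five-concentration, 48-hour dose response in 96-well plates underlies each endpoint, interpolated linearly between surrounding concentrations. GI50: concentration for 50% inhibition of growth.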 The source made the active and inactive calls. No stated cut-off is given here; in the data, active = GI50 up to about 1.1 µM and inactive = higher.

Take `CSC(=O)/C=C1\SS/C(=C\C(=O)SC)S1`: the GI50 is 1.85 µM (inactive) in assay [1]; 6.24 µM (inactive) in assay [2]; 2.99 µM (inactive) in assay [3]; 1.69 µM (inactive) in assay [4]; 1.39 µM (inactive) in [5]; 2.4 µM (inactive) in assay [6]. For the same compound, the GI50 is 1.8 µM (inactive) in assay [7]; 2.47 µM (inactive) in assay [8]; 2.79 µM (inactive) in [9]; 2.07 µM (inactive) in assay [10]; 2.29 µM (inactive) in [11]; 1.77 µM (inactive) in [12]. Besides, the GI50 in assay [13] was 2.13 µM (inactive); in assay [14], 2.34 µM (inactive); in [15], 1.55 µM (inactive); in assay [16], 1.24 µM (inactive); in assay [17], 2.72 µM (inactive); in [18], 1.81 µM (inactive). In addition, the GI50 in assay [19] was 0.796 µM (active).
Take `CC(=O)OCC1OC(N2C(c3ccccc3)=CC(c3ccccc3)C(C#N)=C2S)C(OC(C)=O)C(OC(C)=O)C1OC(C)=O` (configuration not stated): the GI50 in [1] is 2.33 µM (inactive); in [2] it was 7.62 µM (inactive); in assay [3] it was 5.58 µM (inactive); in assay [4] it was 5.57 µM (inactive); in assay [5], 3.08 µM (inactive); in assay [7], 25.4 µM (inactive). Also, the GI50 in [8] was 2.35 µM (inactive); in assay [9] it was 3.76 µM (inactive); in assay [10], 3.7 µM (inactive); in [11], 4.92 µM (inactive); in assay [12], 48.6 µM (inactive); in assay [13], 5.43 µM (inactive). The GI50 was 14.3 µM (inactive) in [14]; 13.3 µM (inactive) in [15]; 3.17 µM (inactive) in assay [16]; 2.56 µM (inactive) in assay [17]; 54.7 µM (inactive) in [18]; 0.583 µM (active) in assay [19].
For the compound `Brc1ccccc1/C=N\C12CC3CC(CC(C3)C1)C2`, the GI50 in [1] is > 52.8 µM (inactive); in assay [2], > 100 µM (inactive); in [3], > 68.2 µM (inactive); in assay [4], > 100 µM (inactive); in assay [5], 24.8 µM (inactive); in [6], > 100 µM (inactive). The GI50 in assay [7] is > 100 µM (inactive); in assay [8], 38.4 µM (inactive); in assay [9], 1.02 µM (active); in [10], > 100 µM (inactive); in assay [11], 8.47 µM (inactive); in [12], 4.75 µM (inactive). The GI50 in assay [13] is > 67.9 µM (inactive); in assay [14] it was > 100 µM (inactive); in [15] it was 3.31 µM (inactive); in assay [16], 97.9 µM (inactive); in assay [17], 15.5 µM (inactive); in assay [20] it was > 100 µM (inactive). Besides, the GI50 in assay [18] is 3.9 µM (inactive); in assay [19], 12 µM (inactive).
Turning to `S=C(N1CCN(c2cccc(Cl)c2)CC1)N1CCN(c2cccc(Cl)c2)CC1`, the GI50 in [1] is 33.3 µM (inactive); in assay [2] it was 68.1 µM (inactive); in assay [3], 50.8 µM (inactive); in [4], 75.3 µM (inactive); in assay [5], 25.2 µM (inactive); in [6], 35 µM (inactive). The GI50 is 17.5 µM (inactive) in assay [7]; 28.8 µM (inactive) in [8]; 33 µM (inactive) in assay [9]; 11 µM (inactive) in [10]; 82 µM (inactive) in assay [11]; 16 µM (inactive) in assay [12]. Besides, the GI50 in assay [13] is 21.2 µM (inactive); in [14] it was > 100 µM (inactive); in [15], 34.6 µM (inactive); in [16] it was 36.6 µM (inactive); in assay [20], > 100 µM (inactive); in assay [18] it was > 100 µM (inactive). In addition, the GI50 in assay [19] was 83 µM (inactive).
As to `CCOC1OC(=O)c2cc3ccc4c(c3c(-c3ccc5c(c3)OCO5)c21)OCO4` (configuration not stated), the GI50 was 9.06 µM (inactive) in assay [1]; 3.08 µM (inactive) in assay [2]; 10.4 µM (inactive) in assay [3]; 4.28 µM (inactive) in [4]; 4.48 µM (inactive) in assay [5]; 3.54 µM (inactive) in assay [6]. The GI50 is 2.26 µM (inactive) in assay [7]; 4.76 µM (inactive) in assay [8]; 7.6 µM (inactive) in assay [9]; 17.4 µM (inactive) in [10]; 3.04 µM (inactive) in assay [11]; 6.05 µM (inactive) in assay [12]. Also, the GI50 was > 100 µM (inactive) in [13]; 5.13 µM (inactive) in assay [14]; 4.12 µM (inactive) in assay [15]; 5.79 µM (inactive) in assay [16]; 1.42 µM (inactive) in assay [17]; 1.42 µM (inactive) in assay [20]. Moreover, the values for the GI50 in assay [18] and in assay [19] were 6.04 µM (inactive) and 6.01 µM (inactive), respectively.
For `C/C=C\C(CC(=O)NCC(=O)c1c[nH]c2ccccc12)CC(=O)OC` (configuration not stated), the GI50 in assay [1], in [2], in assay [3], in [4], in [5] and in assay [6] was > 100 µM (inactive) throughout. Also, the GI50 in assay [7], in assay [8], in assay [9], in assay [10], in [11] and in assay [12] was > 100 µM (inactive) throughout. Further, the GI50 in [13], in assay [14], in assay [15], in assay [16], in assay [20] and in [18] was > 100 µM (inactive) in each case. Besides, the GI50 in assay [19] is > 100 µM (inactive).
As to `CSC1=NC(=O)CCN1C1OCC(OC(C)=O)C(OC(C)=O)C1OC(C)=O` (configuration not stated), the GI50 in assay [1] was 16.3 µM (inactive); in assay [2] it was 18.6 µM (inactive); in assay [3], 17 µM (inactive); in [4], 15.1 µM (inactive); in [5] it was 24.7 µM (inactive); in [6], 20.1 µM (inactive). Besides, the GI50 is 21.8 µM (inactive) in [7]; 17.9 µM (inactive) in assay [8]; 3.65 µM (inactive) in [9]; 12.4 µM (inactive) in [10]; 17.9 µM (inactive) in assay [11]; 4.66 µM (inactive) in assay [12]. Moreover, the GI50 in [13] is 14.3 µM (inactive); in assay [14], 15.8 µM (inactive); in assay [15], 6.9 µM (inactive); in assay [16] it was 15.8 µM (inactive); in assay [17], 12.1 µM (inactive); in assay [20] it was 15.2 µM (inactive). Moreover, the figures for the GI50 in assay [18] and in assay [19] were 18.3 µM (inactive) and 40.6 µM (inactive), respectively.
For `CC(=O)Oc1ccc2c3c1[C@H]1O[C@H]1c1cccc(c1-3)[C@@H]1O[C@H]21`, the GI50 in [1] was 2.21 µM (inactive); in [2], 7.33 µM (inactive); in assay [3] it was 18.3 µM (inactive); in assay [4] it was 8.97 µM (inactive); in assay [5] it was 3.22 µM (inactive); in [6] it was 16.5 µM (inactive). For the same compound, the GI50 in assay [7] was 7.78 µM (inactive); in assay [8], 7.18 µM (inactive); in assay [9], 5.02 µM (inactive); in assay [10], 12.8 µM (inactive); in assay [11] it was 2.04 µM (inactive); in [12], 18.5 µM (inactive). Moreover, the GI50 was 2.72 µM (inactive) in [13]; 10 µM (inactive) in assay [14]; 3.22 µM (inactive) in assay [15]; 0.409 µM (active) in assay [16]; 14.6 µM (inactive) in assay [20]; 2.09 µM (inactive) in assay [18]. Besides, the GI50 in assay [19] was 8 µM (inactive).
Consider `CCCCN1C(=O)N(c2ccc(OCC)cc2)C2N(CCCC)C1C(C)(C)C2(C)C` (configuration not stated), for which the GI50 in [1] is 21.5 µM (inactive); in [2], 56.4 µM (inactive); in assay [3], 27.7 µM (inactive); in assay [4], 30.3 µM (inactive); in [5], 26.3 µM (inactive); in [6] it was 19.7 µM (inactive). Further, the GI50 in assay [7] is 51.3 µM (inactive); in assay [8], 38.5 µM (inactive); in assay [10] it was 41.5 µM (inactive); in assay [11] it was 20.2 µM (inactive); in assay [13] it was 24.2 µM (inactive); in assay [14], 23.5 µM (inactive). In addition, the GI50 is 14.9 µM (inactive) in assay [15]; 16.3 µM (inactive) in assay [16]; 16.7 µM (inactive) in assay [17]; 19.2 µM (inactive) in assay [20]; 32.6 µM (inactive) in [18]; 16.9 µM (inactive) in assay [19].
On to `CC(C)[C@H]1NC(=O)[C@H]2N=C(O[C@@H]2C)[C@@H]2CCCN2C(=O)[C@H](Cc2ccccc2)NC(=O)[C@@H]2CSC(=N2)[C@@H](Cc2ccccc2)NC(=O)[C@@H]2CSC1=N2`, for which the GI50 in [1] is > 100 µM (inactive); in assay [2], 84.5 µM (inactive); in [3], > 100 µM (inactive); in assay [4] it was > 100 µM (inactive); in [5] it was > 100 µM (inactive); in assay [6], > 100 µM (inactive). In addition, the GI50 in [7] is 21.7 µM (inactive); in [8], 84.5 µM (inactive); in [9], 92.9 µM (inactive); in assay [10], > 100 µM (inactive); in assay [11], 52.8 µM (inactive); in assay [12], 75.7 µM (inactive). The GI50 in assay [13] is > 100 µM (inactive); in assay [14] it was 86.5 µM (inactive); in [15], 20 µM (inactive); in [16], 61.4 µM (inactive); in [17], > 100 µM (inactive); in assay [20], > 100 µM (inactive). In addition, the GI50 in assay [18] was 86.5 µM (inactive); in assay [19] it was 50 µM (inactive).
